According to the Kinase Knowledgebase extract (Sharma et al. 2016):

Experiments:
[1] = biological target: PIK3CA (human) (UniProt P42336); experiment: Enzyme Assay
[2] = biological target: PIK3CG (human) (UniProt P48736); experiment: Enzyme Assay
[3] = biological target: PIK3CD (Human) (UniProt O00329); experiment: Enzyme Assay
[4] = biological target: PIK3CA (human) (UniProt P42336); experiment: Cell-Based Assay; details: rat-1
[5] = biological target: PIK3CG (human) (UniProt P48736); experiment: Cell-Based Assay; details: u937
[6] = biological target: PIK3CD (Human) (UniProt O00329); experiment: Cell-Based Assay; details: rat-1

PIK3CD (Human), sequence (O00329 whole entry, looked up): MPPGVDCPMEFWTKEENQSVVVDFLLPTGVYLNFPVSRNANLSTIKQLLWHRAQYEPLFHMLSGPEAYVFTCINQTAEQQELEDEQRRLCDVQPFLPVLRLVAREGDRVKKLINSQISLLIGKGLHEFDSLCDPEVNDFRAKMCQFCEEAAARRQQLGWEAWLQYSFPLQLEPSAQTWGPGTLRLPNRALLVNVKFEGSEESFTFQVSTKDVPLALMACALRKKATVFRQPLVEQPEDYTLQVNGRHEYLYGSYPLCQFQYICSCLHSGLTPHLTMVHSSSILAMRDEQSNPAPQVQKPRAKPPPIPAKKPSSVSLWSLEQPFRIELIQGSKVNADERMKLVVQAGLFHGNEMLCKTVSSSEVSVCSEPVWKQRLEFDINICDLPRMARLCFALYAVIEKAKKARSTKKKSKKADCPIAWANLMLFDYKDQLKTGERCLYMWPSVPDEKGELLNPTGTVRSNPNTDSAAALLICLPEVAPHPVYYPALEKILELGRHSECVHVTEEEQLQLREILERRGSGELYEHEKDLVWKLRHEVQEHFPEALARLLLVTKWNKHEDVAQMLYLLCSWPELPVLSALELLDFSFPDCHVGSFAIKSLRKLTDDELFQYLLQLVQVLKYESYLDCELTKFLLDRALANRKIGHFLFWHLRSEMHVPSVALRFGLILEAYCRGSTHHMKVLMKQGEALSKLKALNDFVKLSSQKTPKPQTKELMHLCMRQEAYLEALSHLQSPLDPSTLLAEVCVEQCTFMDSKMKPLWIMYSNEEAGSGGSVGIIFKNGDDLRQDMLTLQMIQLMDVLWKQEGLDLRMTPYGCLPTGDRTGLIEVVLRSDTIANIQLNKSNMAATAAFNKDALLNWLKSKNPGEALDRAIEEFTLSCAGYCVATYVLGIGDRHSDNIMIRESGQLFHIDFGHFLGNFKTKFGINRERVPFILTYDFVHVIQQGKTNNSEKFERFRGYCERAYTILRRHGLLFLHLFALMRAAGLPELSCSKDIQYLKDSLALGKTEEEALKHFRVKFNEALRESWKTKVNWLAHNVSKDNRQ
PIK3CA (human), sequence (P42336 whole entry, looked up): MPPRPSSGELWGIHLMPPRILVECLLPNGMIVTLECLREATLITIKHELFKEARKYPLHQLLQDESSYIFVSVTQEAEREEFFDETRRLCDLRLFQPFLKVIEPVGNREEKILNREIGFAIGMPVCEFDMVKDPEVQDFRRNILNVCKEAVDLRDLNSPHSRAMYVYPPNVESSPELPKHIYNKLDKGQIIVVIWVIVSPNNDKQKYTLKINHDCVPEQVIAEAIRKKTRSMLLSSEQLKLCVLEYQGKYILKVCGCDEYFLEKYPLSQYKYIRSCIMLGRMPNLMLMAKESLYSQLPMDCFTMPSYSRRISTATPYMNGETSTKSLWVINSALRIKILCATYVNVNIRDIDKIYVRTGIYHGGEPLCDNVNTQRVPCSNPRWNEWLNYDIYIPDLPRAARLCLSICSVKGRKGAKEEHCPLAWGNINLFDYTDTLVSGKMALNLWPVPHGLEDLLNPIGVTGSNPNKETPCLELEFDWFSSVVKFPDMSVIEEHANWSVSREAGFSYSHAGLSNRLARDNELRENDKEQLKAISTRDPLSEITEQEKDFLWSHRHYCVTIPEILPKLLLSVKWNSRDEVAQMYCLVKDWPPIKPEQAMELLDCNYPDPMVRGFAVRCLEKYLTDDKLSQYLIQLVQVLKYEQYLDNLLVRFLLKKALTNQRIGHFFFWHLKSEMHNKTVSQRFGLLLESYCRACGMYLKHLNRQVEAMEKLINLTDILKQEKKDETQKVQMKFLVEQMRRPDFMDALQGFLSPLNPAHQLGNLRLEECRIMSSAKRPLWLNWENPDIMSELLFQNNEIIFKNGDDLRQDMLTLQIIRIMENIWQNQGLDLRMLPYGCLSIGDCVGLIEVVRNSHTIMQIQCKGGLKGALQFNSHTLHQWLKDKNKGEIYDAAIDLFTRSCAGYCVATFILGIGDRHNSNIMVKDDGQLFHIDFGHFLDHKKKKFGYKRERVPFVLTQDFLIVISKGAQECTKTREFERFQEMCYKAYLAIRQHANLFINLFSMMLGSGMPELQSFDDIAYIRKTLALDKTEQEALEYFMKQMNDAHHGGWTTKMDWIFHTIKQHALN
PIK3CG (human), sequence (P48736 whole entry, looked up): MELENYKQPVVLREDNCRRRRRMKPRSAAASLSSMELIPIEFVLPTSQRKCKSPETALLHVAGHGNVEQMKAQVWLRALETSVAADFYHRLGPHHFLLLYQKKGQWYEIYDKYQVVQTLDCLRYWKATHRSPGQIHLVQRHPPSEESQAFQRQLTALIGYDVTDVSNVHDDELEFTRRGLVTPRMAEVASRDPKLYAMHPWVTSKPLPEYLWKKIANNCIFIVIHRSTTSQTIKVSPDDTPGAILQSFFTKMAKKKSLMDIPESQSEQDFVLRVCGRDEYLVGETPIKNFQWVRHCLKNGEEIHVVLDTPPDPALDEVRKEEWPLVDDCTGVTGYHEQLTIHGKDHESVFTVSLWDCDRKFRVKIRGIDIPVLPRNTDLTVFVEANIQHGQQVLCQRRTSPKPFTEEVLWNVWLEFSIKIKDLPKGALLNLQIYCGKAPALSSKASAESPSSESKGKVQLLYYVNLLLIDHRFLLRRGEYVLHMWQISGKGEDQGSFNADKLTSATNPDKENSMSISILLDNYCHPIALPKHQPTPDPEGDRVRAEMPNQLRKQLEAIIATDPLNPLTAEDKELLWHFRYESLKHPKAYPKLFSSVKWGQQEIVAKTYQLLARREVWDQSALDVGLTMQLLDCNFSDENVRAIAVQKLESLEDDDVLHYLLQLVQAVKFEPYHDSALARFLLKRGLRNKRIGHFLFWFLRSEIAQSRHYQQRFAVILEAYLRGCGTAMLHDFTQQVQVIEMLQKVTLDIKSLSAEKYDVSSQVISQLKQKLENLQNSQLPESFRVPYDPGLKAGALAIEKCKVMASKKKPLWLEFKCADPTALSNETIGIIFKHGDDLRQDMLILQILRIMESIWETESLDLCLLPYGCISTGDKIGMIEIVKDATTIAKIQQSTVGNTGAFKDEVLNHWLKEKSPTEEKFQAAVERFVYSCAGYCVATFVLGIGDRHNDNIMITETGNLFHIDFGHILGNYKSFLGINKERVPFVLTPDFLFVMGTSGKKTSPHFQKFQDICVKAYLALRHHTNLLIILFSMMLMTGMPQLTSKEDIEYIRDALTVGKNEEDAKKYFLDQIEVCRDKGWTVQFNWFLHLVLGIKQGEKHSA

Row | SMILES | IC50 [1] [nM] | IC50 [2] [nM] | IC50 [3] [nM] | IC50 [4] [nM] | IC50 [5] [nM] | IC50 [6] [nM]
1 | O=c1c2c(Cl)cccc2nc([C@@H]2CCCN2c2ncnc3scnc23)n1-c1ccccc1 | 5100 | 81 | 4 | 4690 | 215 | 51
2 | Cc1nc(N)nc(N2CCC[C@H]2c2nc3cccc(C(F)(F)F)c3c(=O)n2-c2cccnc2)c1C#N | 540 | 180 | 24 | 3840 | 82 | 27
3 | Cc1nc(N)nc(N2CCC[C@H]2c2nc3cccc(Cl)c3c(=O)n2N2CCOCC2)c1C#N | 790 | 71 | 18 | 1790 | 27 | 15
4 | CS(=O)(=O)N1CC[C@H](n2c([C@@H]3CCCN3c3ncnc4[nH]cnc34)nc3cccc(Cl)c3c2=O)C1 | > 10000 | 370 | 360 | > 10000 | > 10000 | 939
5 | Cc1nc(N)nc(N2C[C@@H](O)C[C@H]2c2nc3cccc(OC(F)F)c3c(=O)n2-c2ccccc2)c1C#N | 450 | 140 | 75 | 4670 | 70 | 45
6 | N#Cc1c(N)ncnc1N1OCC[C@H]1c1nc2cccc(Cl)c2c(=O)n1-c1ccccc1 | 2000 | 44 | < 3 | 3690 | 144 | 14
7 | N#Cc1c(N)ncnc1N1C[C@@H](O)C[C@H]1c1nc2cccc(C(F)(F)F)c2c(=O)n1-c1cccc(F)c1 | 9300 | 720 | 82 | > 10000 | 146 | 29
8 | Cc1nc(N)nc(N2C[C@@H](O)C[C@H]2c2nc3ccc(F)c(C)c3c(=O)n2-c2ccccc2)c1C#N | 270 | 24 | 14 | 1090 | 18 | 7
9 | CO[C@H]1C[C@@H](c2nc3cccc(C(F)(F)F)c3c(=O)n2-c2ccccc2)N(c2ncnc(N)c2C#N)C1 | 7600 | 460 | 18 |  | 671 | 35
10 | N#Cc1c(N)ncnc1N1CCC[C@H]1c1nc2ccc(F)c(C(F)(F)F)c2c(=O)n1-c1ccccc1 | 4200 | 500 | 13 |  | 211 | 
11 | Cn1cnc2c(N3CCC[C@H]3c3nc4cccc(Cl)c4c(=O)n3N3CCOCC3)nc(N)nc21 | 5250 | 505 | 2500 |  | 2360 | 476
12 | Cc1nc(N)nc(N2CCC[C@H]2c2nc3ccc(F)c(C(F)(F)F)c3c(=O)n2-c2ccccc2)c1C#N | 390 | 30 | 18 |  | 522 | 
13 | CO[C@H]1C[C@@H](c2nc3cccc(C(F)(F)F)c3c(=O)n2-c2ccccc2)N(c2nc(N)nc(C)c2C#N)C1 | 2100 | 107 | 24 |  | 227 | 182
14 | O=c1c2c(Cl)cccc2nc([C@@H]2CCCN2c2ncnc3[nH]cnc23)n1N1CCCCC1 | 1800 | 200 | 10 | > 10000 |  | 198
15 | Cn1nccc1-n1c([C@@H]2CSCN2c2ncnc(N)c2C#N)nc2cccc(Cl)c2c1=O | > 10000 | > 10000 | 7200 | > 10000 |  | > 10000
16 | Nc1nc(N2CCC[C@H]2c2nc3cccc(Cl)c3c(=O)n2C2CCCCC2)c2nc[nH]c2n1 | 1780 | 96 | 24 | > 10000 |  | 149
17 | Cc1nc(N)nc(N2CCC[C@H]2c2nc3cccc(Cl)c3c(=O)n2-c2ccccc2)c1C#N | 72 | 22 | 7 | 1110 |  | 5

Row | SMILES | IC50 [1] [nM] | IC50 [2] [nM] | IC50 [3] [nM] | IC50 [4] [nM] | IC50 [5] [nM] | IC50 [6] [nM]
18 | Cc1nc(N)nc(N2CCC[C@H]2c2nc3cccc(Cl)c3c(=O)n2C2CC2)c1C#N | 930 | 110 | 31 | 1160 |  | 61
19 | Cc1ccc(-n2c([C@@H]3CSCN3c3ncnc(N)c3C#N)nc3cccc(Cl)c3c2=O)s1 | > 10000 | 1100 | 82 | > 10000 |  | 262
20 | CO[C@H]1C[C@@H](c2nc3cccc(Cl)c3c(=O)n2C2CC2)N(c2nc(N)nc(C)c2C#N)C1 | 1320 | 220 | 104 | 3540 |  | 73
21 | O=c1c2c(Cl)cccc2nc([C@@H]2CCCN2c2ncnc3[nH]cnc23)n1N1CCOCC1 | 2800 | 140 | 35 | > 10000 |  | 80
22 | Cc1nc(N)nc(N2CCC[C@H]2c2nc3cccc(OC(F)F)c3c(=O)n2-c2ccccc2)c1C#N | 340 | 70 | 9 | > 10000 |  | 77
23 | COC(=O)N1CC[C@@H](n2c([C@@H]3CCCN3c3ncnc4[nH]cnc34)nc3cccc(Cl)c3c2=O)C1 | > 10000 | > 10000 | 200 | > 10000 |  | 2350
24 | Cc1ccccc1-n1c([C@@H]2CSCN2c2ncnc(N)c2C#N)nc2cccc(Cl)c2c1=O | 6820 | 148 | 11 | 4470 |  | 38
25 | N#Cc1c(N)ncnc1N1CCC[C@H]1c1nc2cccc(Cl)c2c(=O)n1-c1cccnc1 | 7700 | 150 | 14 | 4590 |  | 12
26 | O=c1c2c(F)cc(F)cc2nc([C@@H]2CCCN2c2ncnc3[nH]cnc23)n1-c1ccccc1 | > 10000 | > 10000 | 120 | > 10000 |  | 733
27 | Cc1c(F)ccc2nc([C@@H]3CCCN3c3ncnc(N)c3C#N)n(-c3ccccc3)c(=O)c12 | 700 | 120 | 11 | 7160 |  | 25
28 | Cc1nc(N)nc(N2C[C@@H](O)C[C@H]2c2nc3cccc(C(F)(F)F)c3c(=O)n2-c2ccccc2)c1C#N | 780 | 5 | < 3 |  | 59 | 8
29 | Cc1nc(N)nc(N2CCC[C@H]2c2nc3ccc(F)c(C)c3c(=O)n2-c2ccccc2)c1C#N | 370 | 49 | 17 | 2090 |  | 42
30 | O=c1c2c(Cl)cccc2nc([C@@H]2CCCN2c2ncnn3ccnc23)n1-c1ccccc1 | 4670 | 103 | 34 | 5150 |  | 56
31 | COc1ccc(-n2c([C@@H]3CCCN3c3ncnc(N)c3C#N)nc3cccc(Cl)c3c2=O)cn1 | > 10000 | 460 | 240 | > 10000 |  | 152
32 | O=c1c2c(Cl)cccc2nc([C@@H]2CCCN2c2ncnc3[nH]cnc23)n1C1CCOCC1 | 4550 | 295 | 59 | > 10000 |  | 179
33 | CO[C@H]1C[C@@H](c2nc3cccc(Cl)c3c(=O)n2N2CCOCC2)N(c2ncnc(N)c2C#N)C1 | 4000 | 380 | 66 | > 10000 |  | 32
34 | N#Cc1c(N)ncnc1N1C[C@@H](O)C[C@H]1c1nc2cccc(C(F)(F)F)c2c(=O)n1-c1ccccc1 | 1800 | 66 | 8 | > 10000 |  | 3
